According to patent publication US20040002537A1, “Use of statins in the treatment of autoimmune disease” (priority 2002, published 2004):

What was measured:
[1] = tested on: Th1/Th2 cytokines (IL-2, IFN-γ, IL-4, IL-10); test: Cytokine profile determination by ELISA, ex vivo lymph node and spleen cells; type: in vivo, mouse
Experimental: Cytokine Profile Determination. Lymph node cells and spleen cells from EAE donors were stimulated in vitro (2.5×10^6 cells/ml) in 24-well plates with or without the encephalogenic peptide or with […] as positive control. Cell culture supernatants were collected at different time points for measurements of cytokine levels: 48 hours for IL-2 , 72 hours for IFN-γ and TNF α, and 120 hours for […]. Cytokine levels were determined using specific ELISA kits for the corresponding cytokines according to the manufacturer's protocols (PharMingen, San Diego, Calif., USA).

[2] = tested on: PLP p139-151-induced EAE in SJL/J mice; test: PLP p139-151-induced relapsing EAE, oral atorvastatin; type: in vivo, mouse
STAT6 [3] = test: Western blot for STAT6 phosphorylation in draining lymph node cells of treated mice; type: in vivo, mouse; conditions: SJL/J mice, 1 mg/kg and 10 mg/kg oral, 10 days after EAE induction, FIG. 5 lanes 2 and 3
Experimental: (§1) Western Blot Analysis for STAT-6 and STAT-4 Phosphorylation. Western Blot analysis was performed as described in Garren et al. (2001) Immunity 15:15, with minor modifications. Lymph nodes from control and atorvastatin-treated mice were homogenized in T-PER protein extraction buffer (Pierce,), with 20 μg/ml aprotinin, 20 μg/ml leupeptin, 1.6 mM Pefablock SC (Roche), 10 mM NaF, 1 mM Na3VO4 and 1 mM Na4P2O7 (Sigma, St. Louis, Mo.). All procedures were handled on ice. As a positive control, lymph node cells from naive mice were isolated and cultured for one hour with mouse recombinant IL-4 (10 ng/ml) or INF-γ (100 units/ml), for STAT6 and STAT4 expression respectively. Protein concentrations were determined by BCA protein assay (Pierce). Lysate was added to 3×SDS loading buffer (Cell Signaling Technology) with 40 mM DTT. Products were separated by electrophoresis on a 4-15% SDS-PAGE gradient gel (BioRad). Pre-stained markers (Invitrogen) were used to determine MW. Gels were blotted to PVDF membranes at 100 V in 25 mM Tris, 192 mM glycine and 20% (v/v) methanol, then blocked 1 hr at RT with Tris-buffered saline (TBS) containing 0.1% Tween-20 and 5% nonfat dry milk. […]

[4] = tested on: PLP p139-151-stimulated spleen cells
Experimental: Ag Specific Ex-vivo T Cell Proliferation Assay. […] Lymph node cells (LNCs) or splenocytes were cultured in vitro for specific proliferative response to the specific encephalogenic peptide (PLP 139-151, MOG 35-55 or MBP Ac1-11, respectively). LNCs were prepared in 96-well microtiter plates in a volume of 0.2 ml/well at a concentration of 5×10^6 cells/ml. The culture medium consisted of enriched RPMI (RPMI 1640 supplemented with L-glutamine [2 mM], sodium pyruvate [1 mM], nonessential amino acids [0.1 mM], penicillin [100 U/ml], streptomycin [0.1 mg/ml], 2-ME [5×10^−5 M]) supplemented with 1% autologous fresh normal mouse serum with the addition of different peptides concentrations. Cultures were incubated in 37° C. in humidified air containing 5% CO2. Cultures taken from SJL/J or C57BL/6 mice were incubated for 72h whereas cultures from MBPAc-1-11 Tg mice were incubated for 48 hours and then were pulsed for 18 hr with 1 μCi/well of [^3H] thymidine. The cells were then harvested and counted in a β counter.

[5] = tested on: MOG p35-55-induced EAE in C57BL/6 mice; test: MOG p35-55-induced chronic EAE, oral atorvastatin; type: in vivo, mouse; conditions: daily oral
[6] = tested on: MBP Ac1-11-induced EAE in MBP Ac1-11 Tg mice; test: MBP Ac1-11-induced acute EAE, oral atorvastatin; type: in vivo, mouse; conditions: FIG. 1E
MHC II = conditions: through the effect on the CIITA p IV gene; cited from earlier work
microglia and astrocytes = conditions: cited from earlier work
STAT6 [7] = test: Western blot for STAT6 phosphorylation, naive lymph node cells cultured with IL-4 (positive control); type: cell-based, mouse; conditions: 10 ng/ml for one hour, FIG. 5 lane 4
Experimental: as §1

For `CC(C)c1c(C(=O)Nc2ccccc2)c(-c2ccccc2)c(-c2ccc(F)cc2)n1CC[C@@H](O)C[C@@H](O)CC(=O)O` [atorvastatin], the “Th2 bias (proliferation and cytokines) in other strains” value ([1]; C57BL/6 and MBP Ac1-11-specific transgenic mice) was “almost identical Th2 bias”, the “Secretion of IL-10” value ([1]; SJL/J mice, 10 mg/kg, ELISA, FIG. 4E) was “observed at the higher treatment dose” and the “Production of IL-2” value ([1]; SJL/J mice, 1 and 10 mg/kg, ELISA, FIG. 4B) was “reduced, although to a much greater extent in mice treated with 10 mg/kg”. The “Secretion of IFN-γ” value ([1]; SJL/J mice, both treatment doses (1 and 10 mg/kg), ELISA, FIG. 4C) was “dramatic reduction”, the IL-4 secretion ([1]; SJL/J mice, both treatment doses (1 and 10 mg/kg), ELISA, FIG. 4D) was “induced at both treatment doses” and the “Ongoing relapsing EAE, treatment begun after recovery from acute EAE” value ([2]; FIG. 1D) was “reversal of ongoing relapsing EAE”. For the same molecule, the “Prevention of relapsing EAE” value ([2]; treatment at onset, FIG. 1C) was “effective in prevention of relapsing EAE”, the “Phosphorylated STAT6 in lymph nodes (Western blot)” value (STAT6 [3]) was “phosphorylated STAT6 is seen” and the “PLP p139-151-specific proliferative responses (3H-thymidine incorporation)” value ([4]; cells from SJL/J mice treated with 1 or 10 mg/kg, FIG. 4A) was “suppressed in a dose-related fashion”. The “Cell death in the in vitro cultures” value ([4]; lymphocytes from treated mice) was “not observed increased cell death”, the “EAE clinical score, treatment starting at EAE onset” value ([5]; C57Bl/6 female mice, 1 mg/kg or 10 mg/kg, FIG. 1A) was “suppressed EAE induction” and the “EAE clinical score, treatment after onset” value ([5]; C57Bl/6 mice, FIG. 1B) was “ameliorated EAE”. The “Acute EAE progression” value [6] was “successfully prevented acute EAE progression” and the “Expression of MHC II” value (MHC II) was “could inhibit the expression of MHC II”.

In the case of `CC[C@H](C)C(=O)O[C@H]1C[C@@H](C)C=C2C=C[C@H](C)[C@H](CC[C@@H]3C[C@@H](O)CC(=O)O3)[C@H]21` [lovastatin], the “Production of iNOS and proinflammatory cytokines (TNFα, IL-1β and IL-6)” value (microglia and astrocytes) is listed as “inhibited production”.

B1: mouse recombinant IL-4: mouse recombinant IL-4 (10 ng/ml), positive control for STAT6 phosphorylation (protein, UniProt P07750 21-140, looked up)
Interleukin-4: HIHGCDKNHLREIIGILNEVTGEGTPCTEMDVPNVLTATKNTTESELVCRASKVLRIFYLKHGKTPCLKKNSSVLMELQRLFRAFRCLDSSISCTMNESKSTSLKDFLESLKSIMQMDYS
With B1 the “Phosphorylated STAT6 in naive lymph node cells (Western blot)” value (STAT6 [7]) was “phosphorylated STAT6 is seen”.
